Data from patent US12364702B2, “Highly active sting protein agonist compound” (ADLAI NORTYE BIOPHARMA CO., LTD., priority 2018, dated 2025).
Read-outs that look alike come from different tables or passages of the source.

Tests used:
Format in all cases: cell-based
STING WT variant = target: T1, STING WT variant (Homo sapiens, UniProt Q86WV6); assay: SEAP reporter assay in HEK-Blue ISG KO-STING cells transfected with STING WT variant (Method 1); settings: 24 h, SEAP signal vs 0.5% DMSO
T1 construct: host or cells: HEK-Blue ISG KO-STING cells (Invivogen, hkb-kostg)
Text: (§1) Activation of STING can be determined using a SEAP reporter assay in HEK-Blue™ ISG KO-STING cells (Invivogen, cat #hkb-kostg) transfected with plasmids expressing STING variants (WT & HAQ) (referred to WO2017/175147A1). STING variants (WT & HAQ) vector were constructed based on STING-232H vector (Origene, RC208418). GFP vector (VT2069) was bought from Youbio. The detailed protocol as follows: HEK-Blue™ ISG KO-STING cells were harvest and seeding into 96 well plate, the final cell number was 0.8×10^5 cells/well. Transfections were prepared using Lipofectamine 2000 (Invitrogen, Cat #11668-027) following the manufacturer's instructions (Lipo2000/DNA=1/10), 20 ul of transfection suspension containing 1 ng STING vector was added to cell culture plate and incubated at 37° C., 5% CO2 for 24 hours. After 24 hours' incubation, compounds were added at proper concentration, and the final DMSO concentration was 0.5%. After 24 h incubation, the supernatant was collected to detect SEAP signal using Great EscAPe SEAP chemiluminescence KIT (Clontech, cat #631738) and cells were collected to detect cell viability using CellTiter-Glo Luminescent Cell Viability Assay (Promega, cat #G7573) following the manufacturer's instructions. The data were described by the ratio of the stimulating signal of compounds to 0.5% DMSO.

STING HAQ variant = target: T2, STING HAQ variant (Homo sapiens, UniProt Q86WV6, G230A/R293Q/R71H); assay: SEAP reporter assay in HEK-Blue ISG KO-STING cells transfected with STING HAQ variant (Method 1); settings: 24 h, SEAP signal vs 0.5% DMSO
T2 construct: host or cells: HEK-Blue ISG KO-STING cells (Invivogen, hkb-kostg)
T2 sequence (Q86WV6 whole entry R71H/G230A/R293Q): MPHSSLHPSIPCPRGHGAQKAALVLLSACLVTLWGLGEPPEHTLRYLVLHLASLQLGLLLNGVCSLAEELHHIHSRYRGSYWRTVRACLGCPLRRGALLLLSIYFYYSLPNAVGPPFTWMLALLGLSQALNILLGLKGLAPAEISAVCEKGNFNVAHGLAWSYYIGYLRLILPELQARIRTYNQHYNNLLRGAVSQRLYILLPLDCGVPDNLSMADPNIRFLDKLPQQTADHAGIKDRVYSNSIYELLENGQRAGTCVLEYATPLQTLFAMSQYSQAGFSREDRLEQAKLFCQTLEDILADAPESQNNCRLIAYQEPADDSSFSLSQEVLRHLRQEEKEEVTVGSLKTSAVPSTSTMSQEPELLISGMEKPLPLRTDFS
Text: as §1

STING = STING (Homo sapiens, UniProt Q86WV6); assay: IFN-β secretion from THP1 by STING activation (hIFNβ ELISA)
Sequence of STING (Q86WV6 whole entry): as the sequence (Q86WV6 whole entry R71H/G230A/R293Q) above, with H71R, A230G, Q293R counted along it
Experimental: In this assay, activation of STING by compounds was evaluated by detecting their ability to stimulate the secretion of IFN-β (interferon-beta) from THP1. THP1 was purchased from National Collection of Authenticated Cell Cultures (Cat #TCHu 57). The top dose of compounds was setted according to their solubility. First, Compounds were 3 times diluted with medium, 8-dose points in total. The final DMSO concentration was 0.2%. THP1 during the logarithmic phase was resuspended to 2×10^6 cells/ml in assay medium. The THP1-cell suspension was dispensed into a 96-well U bottom plate containing 50 ul of compound diluted in medium. After 24 h incubation at 37° C., 5% CO2, the supernatant was collected. The concentration of IFN-β in the supernatant was measured using a human IFNβ ELISA KIT (R&D, DY814-05). The data was fitted with GraphPad Prism or XLfit to calculate EC50 values.

[1] = 1 ng STING vector, compound 2.5 uM
[2] = 1 ng STING vector, compound 5 uM
[3] = THP1 cells; 24 h incubation; IFN-β in supernatant; top dose set according to solubility; read-out: hIFNβ ELISA (EC50)
[4] = THP1 cells; 24 h incubation; IFN-β in supernatant; top dose set according to solubility

Row | Structure (SMILES) | Fold change related to DMSO control WT (STING WT variant; [1]) | Fold change related to DMSO control HAQ (STING HAQ variant; [2]) | EC50 (STING; [3]) [nM] | hIFNβ ELISA (EC50, μM) (STING; [4]) | further results
1 | CCn1nc(C)cc1C(=O)Nc1nc2cc(C(N)=O)cc(OCCCN)c2n1CCC[C@H]1COc2cc(C(N)=O)cc3nc(NC(=O)c4cc(C)nn4CC)n1c23.Cl [Example 14, (S)-3-(3-(7-(3-aminopropoxy)-5-carbamoyl-2-(1-ethyl-3-methyl-1H-pyrazole-5-carboxamido)-1H-benzo[d]imidazol-1-yl)propyl)-2-(1-ethyl-3-methyl-1H-pyrazole-5-carboxamido)-3,4-dihydro-5-oxa-1,2a-diazaacenaphthylene-7-carboxamide] | 2.17 | 16.68 |  |  | EC50 (STING; read-out: hIFNβ ELISA (EC50); THP1 cells; 24 h incubation; IFN-β in supernatant; top dose set according to solubility): > 13700 nM
2 | CCn1nc(C)cc1C(=O)Nc1nc2cc(C(N)=O)cc(OCCCO)c2n1CCC[C@H]1COc2cc(C(N)=O)cc3nc(NC(=O)c4cc(C)nn4CC)n1c23 [Example 6, (S)-3-(3-(5-carbamoyl-2-(1-ethyl-3-methyl-1H-pyrazole-5-carboxamido)-7-(3-hydroxypropoxy)-1H-benzo[d]imidazol-1-yl)propyl)-2-(1-ethyl-3-methyl-1H-pyrazole-5-carboxamido)-3,4-dihydro-5-oxa-1,2a-diazaacenaphthylene-7-carboxamide] |  |  | 4800 |  | Fold change related to DMSO control WT (STING WT variant; compound 57.9 uM): 1.71; Fold change related to DMSO control HAQ (STING HAQ variant; compound 57.9 uM): 32.88
3 | CCn1nc(C)cc1C(=O)Nc1nc2cc(C(N)=O)cc(OC)c2n1CCC[C@@H]1COc2cc(C(N)=O)cc3nc(NC(=O)c4cc(C)nn4CC)n1c23 [Example 4, (R)-3-(3-(5-Carbamoyl-2-(1-ethyl-3-methyl-1H-pyrazole-5-carboxamido)-7-methoxy-1H-benzo[d]imidazol-1-yl)propyl)-2-(1-ethyl-3-methyl-1H-pyrazole-5-carboxamido)-3,4-dihydro-5-oxa-1,2a-diazaacenaphthylene-7-carboxamide] |  |  |  | inactive | Fold change related to DMSO control WT (STING WT variant; compound 26.8 uM): 2.22; Fold change related to DMSO control HAQ (STING HAQ variant; compound 26.8 uM): 10.21
4 | COCCCOc1cc(C(N)=O)cc2nc(NC(=O)c3cc(C)nn3CCF)n(CCC[C@H]3COc4cc(C(N)=O)cc5nc(NC(=O)c6cc(C)nn6CCF)n3c45)c12 [Example 10, (S)-3-(3-(5-carbamoyl-2-(1-(2-fluoroethyl)-3-methyl-1H-pyrazole-5-carboxamido)-7-(3-methoxypropoxy)-1H-benzo[d]imidazol-1-yl)propyl)-2-(1-(2-fluoroethyl)-3-methyl-1H-pyrazole-5-carboxamido)-3,4-dihydro-5-oxa-1,2a-diazaacenaphthylene-7-carboxamide] | 1.98 | 16.63 |  | inactive | 
5 | CCn1nc(C)cc1C(=O)Nc1nc2cc(C(N)=O)cc(OCCCNC(=O)CN(C)C)c2n1CCC[C@H]1COc2cc(C#N)cc3nc(NC(=O)c4cc(C)nn4CC)n1c23 [Example 15, (S)-1-(3-(7-cyano-2-(1-ethyl-3-methyl-1H-pyrazole-5-carboxamido)-3,4-dihydro-5-oxa-1,2a-diazaacenaphthylen-3-yl)propyl)-7-(3-(2-(dimethylamino)acetamido)propoxy)-2-(1-ethyl-3-methyl-1H-pyrazole-5-carboxamido)-1H-benzo[d]imidazole-5-carboxamide] | 2.11 | 11.61 |  | inactive | 
6 | CCn1nc(C)cc1C(=O)Nc1nc2cc(C(N)=O)cc(OCCOCCOC)c2n1CCC[C@H]1COc2cc(C(N)=O)cc3nc(NC(=O)c4cc(C)nn4CC)n1c23 [Example 25, (S)-3-(3-(5-carbamoyl-2-(1-ethyl-3-methyl-1H-pyrazole-5-carboxamido)-7-(2-(2-methoxyethoxy)ethoxy)-1H-benzo[d]imidazol-1-yl)propyl)-2-(1-ethyl-3-methyl-1H-pyrazole-5-carboxamido)-3,4-dihydro-5-oxa-1,2a-diazaacenaphthylene-7-carboxamide] | 1.95 | 46.51 | 700 |  | 

Continued, in another order:

Row | Fold change related to DMSO control WT (STING WT variant; [1]) | Fold change related to DMSO control HAQ (STING HAQ variant; [2]) | EC50 (STING; [3]) [nM] | hIFNβ ELISA (EC50, μM) (STING; [4]) | Structure (SMILES) | further results
7 | 2.70 | 56.42 | 1100 |  | CCn1nc(C)cc1C(=O)Nc1nc2cc(C(N)=O)cc(OCCCN3CCOCC3)c2n1CCC[C@H]1COc2cc(C(N)=O)cc3nc(NC(=O)c4cc(C)nn4CC)n1c23 [Example 24, (S)-3-(3-(5-carbamoyl-2-(1-ethyl-3-methyl-1H-pyrazole-5-carboxamido)-7-(3-morpholinopropoxy)-1H-benzo[d]imidazol-1-yl)propyl)-2-(1-ethyl-3-methyl-1H-pyrazole-5-carboxamido)-3,4-dihydro-5-oxa-1,2a-diazaacenaphthylene-7-carboxamide] | 
8 | 2.14 | 23.71 |  | inactive | CCn1nc(C)cc1C(=O)Nc1nc2cc(C(N)=O)cc(OCCCS(C)(=O)=O)c2n1CCC[C@H]1COc2cc(C(N)=O)cc3nc(NC(=O)c4cc(C)nn4CC)n1c23 [Example 37, (S)-3-(3-(5-carbamoyl-2-(1-ethyl-3-methyl-1H-pyrazole-5-carboxamido)-7-(3-(methylsulfonyl)propoxy)-1H-benzo[d]imidazol-1-yl)propyl)-2-(1-ethyl-3-methyl-1H-pyrazole-5-carboxamido)-3,4-dihydro-5-oxa-1,2a-diazaacenaphthylene-7-carboxamide] | 
9 | 2.27 | 14.14 | 2600 |  | CCn1nc(C)cc1C(=O)Nc1nc2cc(C(N)=O)cc(OCCCOC)c2n1CCC[C@H]1COc2cc(C(N)=O)cc3nc(NC(=O)c4c(Br)c(C)nn4CC)n1c23 [Example 9, (S)-2-(4-bromo-1-ethyl-3-methyl-1H-pyrazole-5-carboxamido)-3-(3-(5-carbamoyl-2-(1-ethyl-3-methyl-1H-pyrazole-5-carboxamido)-7-(3-methoxypropoxy)-1H-benzo[d]imidazol-1-yl)propyl)-3,4-dihydro-5-oxa-1,2a-diazaacenaphthylene-7-carboxamide] | 
10 | 2.33 | 60.17 | 6200 |  | CCn1nc(C)cc1C(=O)Nc1nc2cc(C(N)=O)cc(OCCOC)c2n1CCC[C@H]1COc2cc(C(N)=O)cc3nc(NC(=O)c4cc(C)nn4CC)n1c23 [Example 19, (S)-3-(3-(5-carbamoyl-2-(1-ethyl-3-methyl-1H-pyrazole-5-carboxamido)-7-(2-methoxyethoxy)-1H-benzo[d]imidazol-1-yl)propyl)-2-(1-ethyl-3-methyl-1H-pyrazole-5-carboxamido)-3,4-dihydro-5-oxa-1,2a-diazaacenaphthylene-7-carboxamide] | 
